Results: patent publication US20050085651A1, “Crystal of N-long-chain acylglycine salt, method of production thereof, and detergent composition using said crystal” (AJINOMOTO CO., INC., priority 2003, published 2005)

What was measured:
Assay type in all cases: physicochemical
[1] = Average particle diameter by sieving
Method: Using the GILSONIC AUTOSIEVER (GA-6, manufactured by GILSON), an about 2 g coarsely milled sample (pass through 425μ mesh) was sieved for 5 minutes and the resulting particles were classified by size; the average particle diameter was calculated from the weights of particles in respective classes.
(§1) The milled products of the crystals obtained in Examples 1-3 and the powder obtained in Comparative Example 2 were examined for dusting (scattering) and water solubility and dispersibility. Also, these powders were sieved and their average particle diameters were determined.

[2] = Water solubility: time taken to dissolve powder in water; settings: second Ex. 1 powder, average particle size 20 μm; 1.5 g in 100 g of water at 30° C.
Method: as §1
In this test, solubility is defined as time taken to dissolve 1.5 g of powder in 100 g of water at 30° C.

[3] = Scattering (dusting) test of dropped powder; settings: second Ex. 1 powder, average particle size 20 μm; relative ratio to Comparative Example 2
Method: as §1
Scattering was quantified as described below. A 5 g powder sample was dropped by a distance of 1.2 m from the top of a cylinder (diameter: 12.5 cm). Two seconds after the drop, the scattered powder was sucked from the inlet in the base of the cylinder for 6 seconds using a blower; the powder caught by filter paper (GB100R, manufactured by Advantest Corporation) on the blower surface was weighed. This weight was expressed as a relative ratio to the powder weight in Comparative Example 2.

[4] = Water dispersibility (lumping) evaluated by five panelists; settings: second Ex. 1 powder, average particle size 20 μm
Method: as §1
Dispersibility was evaluated by five panelists. A 1-gram powder sample was placed in the palm of each panelist and rubbed and examined for lumping in the presence of a small amount of water. Findings were evaluated using a three-grade rating system: good (O) for no lumping, acceptable (Δ) for a small amount of lumping, and poor (x) for a large amount of lumping.

[5] = milled product of crystal (Com. Ex. 2: spray-dried powder), sieved

Row | SMILES | Average particle size [1, 5] [μm] | Dissolution rate [2] [s] | Average particle size ([1]; second Ex. 1 powder (finer)) [μm] | Scattering [3] | Dispersibility [4]
1 | CCCCCCCCCCCCCC(=O)NCC(=O)[O-].[Na+] [Ex. 3, N-myristoylglycine Sodium Salt] | 87 | – | – | – | –
2 | CCCCCCCCCCCC(=O)NCC(=O)[O-].[Na+] [Ex. 1, N-lauroylglycine Sodium Salt] | 85 | 341 | 20 | 0.87 | ◯
